Assay [1] is described as follows: Inhibition of VEGFR-3 (unknown origin) by tumor cell growth inhibition assay.
The nature of assay [2]: Inhibition of VEGFR-1 (unknown origin) by tumor cell growth inhibition assay.
Assay [3] can be described thus: Inhibition of VEGFR-2 (unknown origin) by tumor cell growth inhibition assay.
Assay [4] can be described thus: Inhibition of c-Met (unknown origin) by tumor cell growth inhibition assay.

In general, IC50 refers to the midpoint of a concentration-inhibition curve. Read a high IC50 as weaker potency. For `Cn1ccnc1-c1cc2c(Oc3ccc(NC(=S)NC(=O)Cc4ccccc4)cc3F)ccnc2s1`, the concentration for half-maximal inhibition (IC50) in assay [1] came to 4 nM; in assay [2], 3 nM; in assay [3] it was 3 nM; in assay [4], 1 nM.

(Values after BindingDB's records for doi:10.1016/j.ejmech.2015.12.016 (Shenyang Pharmaceutical University, 2016).)
